Assay results: US20120264810A1, “COMPOSITIONS AND METHODS FOR ENHANCING CELLULAR UPTAKE AND INTRACELLULAR DELIVERY OF LIPID PARTICLES” (The University of British Columbia, priority 2009, published 2012)
Where a name gives a salt, the structure may show the parent alone.

Columns and labels:
Raw264.7 cells [1] = assay: Drug screen and titration: siRNACy3-LN uptake and punctate distribution (Cellomics ArrayScan); format: cell-based, mouse; settings: for Normalized Punctate Distribution / Normalized siRNA Uptake: 10 μg/mL siRNACy3 in DLinDMA LN, ~10 μM drug, 24 h; for Normalized Punctate Distribution: normalized to absence of drug; for Normalized siRNA Uptake: total Cy3 intensity normalized to absence of drug; for punctate / cytosolic distribution of siRNACy3 in titration study: drug 0-30 μM, 10 μg/mL siRNACy3-LN; for increase in siRNACy3 accumulation: drug at 30 μM, 10 μg/mL siRNACy3 in DLinDMA LNs, normalized to no drug
Description: (§1) Cells were fixed with 3% paraformaldehyde in PBS in the presence of Hoescht for 15 minutes. Cells were rinsed and stored in PBS supplemented with calcium chloride and magnesium sulfate. Plates were scanned and analyzed with the Cellomics ArrayScan VTI.
as §1

Raw264.7 cells [2] = assay: Chloroquine / CQ-lipid LN formulations: LN uptake (SPDiO) and siRNA distribution (Cellomics, confocal); format: cell-based, mouse
Description: All lipid stocks (DSPC, PEG-s-DMG, Cholesterol, SP-DiOC18, chloroquine lipid and DLinDMA) were dissolved and maintained in 100% ethanol. Lipids were mixed together at a molar % ratio of 40:10:39.8:10:0.2 DLinDMA:PEG-s-DMG:cholesterol:DSPC:SP-DiO18 or 40:10:35.8:9:0.2 with 5% CQ-lipid or 35:10:39.8:0.2 with 5% CQ-lipid. Lipid mixture was added drop-wise to the formulation buffer (50 mM citrate, pH 4.0) to form multi lamellar vesicles (MLV). Large unilamellar vesicles (LUVs) were formed upon extrusion of MLVs through two stacked 80 nm Nuclepore polycarbonate filters using an extruder from Northern Lipids (Vancouver, BC, Canada) at ˜300 psi. In order to encapsulate siRNA, siRNA was added drop-wise to preformed vesicles and incubated at 35° C. for 30 minutes with constant mixing. Removal of ethanol and neutralization of formulation buffer were performed by dialysis in PBS for 16 hours. Distribution of size was determined by dynamic light scattering using a NICOMP 370 particle sizer (Nicomp Particle sizing Inc., Santa Barbara, Calif.). siRNA encapsulation efficiency was determined by removal of free siRNA using VivaPureD MiniH columns (Sartorius Stedim Biotech) from samples collected before and after dialysis. The encapsuted siRNA from eluants were then extracted and quantified at 260 nm. siRNA to lipid ratio was determined by measurement of cholesterol content in vesicles by using the Cholesterol E enzymatic assay from Wako Chemicals USA (Richmond, Va.).
Raw264.7 cells grown on glass coverslips were treated with 10 μg/mL Cy5-siRNA-LN/SPDiO or siRNACy3-LN/SPDiO constituted of +/−5% CQ-lipid in the presence of 35 or 40% DLinDMA. The overall uptake of LNs was monitored with SPDiO and the distribution of siRNA was monitored using either Cy5- or Cy3-labelled siRNA. Cells were fixed with 3% paraformaldehyde in PBS in the presence of Hoescht for nuclear staining for 15 minutes. Glass coverslips were mounted onto slides and analyzed by confocal microscopy (Olympus FV1000). Fluorochromes were excited at 488 nm (DiO), 594 nm (Alexa-594), 550 nm (Cy3) and at 633 nm (Cy5) and images were collected sequentially with 60× oil immersion objective lens.
Raw264.7 cells were treated with LNs consisting of 40% DLinDMA in the absence or presence of 10 or 30 μM chloroquine or formulation consisting of 35% DLinDMA with 5% CQ-lipid (˜14.7 μM chloroquine). Total lipid uptake was estimated by cellular SPDiO fluorescence. When cells were treated for 16 hours, the uptake of SPDiO was dependent on the concentration of chloroquine as well as concentration of LNs (FIG. 4A). When Raw264.7 cells were treated only with DLinDMA LNs, the intensity of SPDiO increased in respect to concentration. […] The Cy5-siRNA distribution at 16 hours was relatively more “punctate” than that at 24 hours (FIGS. 4B and C).

[3] = test system: GAPDH protein expression in LNCaP cells; assay: GAPDH siRNA-LN knockdown in LNCaP cells; format: cell-based, human
Description: (§2) FIG. 5: Raw264.7 cells were treated for 24 hours with siRNACy3 encapsulated in DLinDMA LNs in the presence or absence of 5% CQ-lipid. A lipid label, SPDiO, was incorporated into the LN to monitor uptake. LN uptake was assessed by (A) SPDiO fluorescence and distribution of siRNA was assessed by (B) Cy3 fluorescence using the Cellomics ArrayScan VTI. (C) Raw264.7 cells were incubated with the same LN formulations as in (B) for 24 hours at 10 μg/mL siRNACy3. siRNACy3 distribution was examined by confocal microscopy. (D) GAPDH siRNA was formulated into LN particles comprising of 40% DLinDMA with 0% CQ-lipid or 40% DLinDMA with 5% CQ-lipid. Raw264.7 cells were treated with 5, 10 and 20 μg/mL of siRNA for 48 and 72 hours. GAPDH protein expression was assessed by western blotting against anti-GAPDH and anti-actin. (E) LNCaP cells were treated accordingly as in (D).
(§3) Perhaps most importantly, we wanted to determine whether the enhanced cytosolic distribution of siRNACy3 observed with the CQ-lipid correlated to enhanced gene knockdown. Glyceraldehyde 3-phosphate dehydrogenase (GAPDH) is an ubiquitously expressed cytosolic protein and therefore knockdown efficiency of encapsulated siRNA can be tested in different cell lines (Barber et al., 2005). Raw264.7 cells were treated with LN of varying concentration of GAPDH siRNA for 24, 48 and 72 hours. Total protein was isolated and analyzed for GAPDH levels by immunoblotting. […] The function of GAPDH siRNA was specific since actin expression was unaltered (FIG. 5D). To confirm the function of the CQ-lipid in the LN-siRNA-mediated gene knockdown, GAPDH silencing was also assessed in LNCaP cells (FIG. 5E).

[4] = test system: GAPDH protein expression in Raw264.7 cells; assay: GAPDH siRNA-LN knockdown by western blotting in Raw264.7 cells; format: cell-based, mouse
Description: as §2, §3

Na+/K+-ATPase = settings: Paula et al., 2005; cited from earlier work
HeLa cells = assay: LNP uptake in HeLa cells (SPDiO fluorescence, Cellomics / confocal); format: cell-based, human; settings: for LNP uptake with cardiac glycosides: 0.05, 0.15 and 1.5 μM, 24 h
Description: All cell lines were seeded at 5000 to 20,000 cells/well of 96-well ViewPlate (PerkinElmer, Shelton, Conn., USA) in 100 μl of medium and were allowed to grow overnight. Fresh medium containing 5 or 10 μg/ml of siRNA encapsulated in LNP was added the next day. Small molecules were either added manually or pinned from 1000-fold stocks in DMSO using a pinning robot equipped with 0.4 mm pins (BioRobotics, Cambridge, UK). Cells were incubated for 24 h. Cells were then washed once in PBSCM (1×PBS containing […] CaCl2), fixed in 3% paraformaldehyde containing Hoescht's stain for 15 min, washed once in PBSCM and stored in 100 μl of PBSCM.
Plates were imaged using a Cellomics Arrayscan VTI HCS Reader (Thermo Scientific, Pittsburgh, Pa., USA). Images were acquired using a 20× PlanFluor objective and a XF93 filter set. Object identification and image analysis were performed using the Cellomics Compartmental Analysis algorithm. Cellular SPDiO and siRNA-Cy3 fluorescence intensities were measured for a minimum of 400 cells and the average pixel intensity was examined. For confocal microscopy, cells grown on glass coverslips were washed once in 1×PBS, fixed in 3% paraformaldehyde containing Hoechst's stain for 15 min, washed again and mounted on slides. Images were captured on an Olympus FV1000 (Olympus, Center Valley, Pa., USA) laser scanning microscope and cellular SPDiO fluorescence intensity was analyzed using ImageJ (NIH, http://rsb.info.nih.gov/ij/).

[5] = 30 μM free chloroquine, or 35% DLinDMA LNs with 5% CQ-lipid, 16 hours

With CC(=O)c1ccc(S(=O)(=O)NC(=O)NC2CCCCC2)cc1 [Acetohexamide] the “Normalized Punctate Distribution” value (Raw264.7 cells [1]) was 1.48 and the “Normalized siRNA Uptake” value (Raw264.7 cells [1]) was 1.32.
For Nc1nc(O)c2[nH]nnc2n1 [Azaguanine-8], the “Normalized Punctate Distribution” value (Raw264.7 cells [1]) was 0.07 and the “Normalized siRNA Uptake” value (Raw264.7 cells [1]) was 0.54.
With CCCCC/C=C\C/C=C\CCCCCCCCOCC(CNCCCCNc1ccnc2cc(Cl)ccc12)OCCCCCCCC/C=C\C/C=C\CCCCC (stereo not shown) [CQ-lipid] the Cy5-siRNA punctate levels (Raw264.7 cells [2]; [5]) was “significant reduction”, the “intracellular DiO accumulation (LN uptake)” value (Raw264.7 cells [2]; 5% CQ-lipid:35% DLinDMA LN, highest dose, versus 0% CQ-lipid:40% DLinDMA) was “substantially reduced intracellular DiO accumulation” and the siRNACy3 punctate signal (Raw264.7 cells [2]; 40% DLinDMA LNs with 5% CQ-lipid, 24 hours) was “lowered punctate signal”. For the same molecule, the “uptake of LN particles (SPDiO fluorescence)” value (Raw264.7 cells [2]; 40% DLinDMA LNs with versus without 5% CQ-lipid, 24 hours) was “comparable intracellular SPDiO fluorescence”, the “knockdown of GAPDH” value ([3]; LN containing 5% CQ-lipid, 72 hours) was “More pronounced knockdown effect” and the “knockdown of GAPDH” value ([3]; all concentrations of LN containing 5% CQ-lipid, 48 hours) was “Enhanced knockdown of GAPDH”. The GAPDH protein expression ([4]; 20 μg/mL GAPDH siRNA in LN containing 5% CQ-lipid, 48 hours) was “decreased GAPDH protein expression”, the “gene knockdown occurred earlier than with LN without CQ-lipid” value ([4]; 20 μg/ml siRNA in LN containing the CQ-lipid) was 24 h and the GAPDH knockdown ([4]; 24 hours) was “no knockdown”. For the same molecule, the “knockdown of GAPDH” value ([4]; 72 hours) was “more pronounced”.
For CCN(CC)CCCC(C)Nc1ccnc2cc(Cl)ccc12 (stereo not shown) [Chloroquine], the “siRNA showing punctate distribution” value (Raw264.7 cells [2]; 10 μM chloroquine, 24 hours (without chloroquine maximum 25-30%)) was roughly 10%, the “uptake of LNs (SPDiO fluorescence)” value (Raw264.7 cells [2]; 10 μM free chloroquine, 40% DLinDMA LNs, 16 hours) was “no significant difference” and the Cy5-siRNA punctate levels (Raw264.7 cells [2]; 10 μM free chloroquine, 16 hours) was “largely indifferent”. For the same molecule, the Cy5-siRNA punctate levels (Raw264.7 cells [2]; [5]) was “significant reduction”, the “Normalized Punctate Distribution” value (Raw264.7 cells [1]) was 0.10 and the “Normalized siRNA Uptake” value (Raw264.7 cells [1]) was 0.34. For the same molecule, the “punctate / cytosolic distribution of siRNACy3 in titration study” value (from here on “punctate / cytosolic distribution”) (Raw264.7 cells [1]) was “significant loss of punctate distribution of siRNACy3 at 10 μM”.
With C[N+]1(C)CCC(=C(c2ccccc2)c2ccccc2)CC1 [Diphemanil methylsulfate] the “Normalized Punctate Distribution” value (Raw264.7 cells [1]) was 0.34, the “Normalized siRNA Uptake” value (Raw264.7 cells [1]) was 0.70 and the “punctate / cytosolic distribution” value (Raw264.7 cells [1]) was “only showed enhanced cytosolic distribution of siRNACy3 at 30 μM”.
With Cn1c(=O)c2c(ncn2CC(O)CO)n(C)c1=O (stereo not shown) [Diprophylline] the “Normalized Punctate Distribution” value (Raw264.7 cells [1]) was 1.55, the “Normalized siRNA Uptake” value (Raw264.7 cells [1]) was 1.38 and the “increase in siRNACy3 accumulation” value (Raw264.7 cells [1]) was “Approximately 2 fold”.
For C[C@H]1O[C@@H](O[C@H]2CC[C@]3(C=O)[C@H]4CC[C@]5(C)[C@@H](C6=CC(=O)OC6)CC[C@]5(O)[C@@H]4CC[C@]3(O)C2)C[C@H](O)[C@@H]1O [Helveticoside], the “relative binding affinity among the 9 cardiac glycosides” value (Na+/K+-ATPase) is given as “weakest binder”, the “LNP uptake with cardiac glycosides” value (HeLa cells) is given as “enhanced LNP uptake at a higher concentration” and the “presence of LNs in cells by confocal microscopy” value (HeLa cells; treated for 24 hrs) is given as “substantial amount of LNs”.
For CC(=O)OCC(=O)[C@@]1(O)CC[C@H]2[C@@H]3CCC4=CC(=O)C=C[C@]4(C)[C@@]3(F)[C@@H](O)C[C@@]21C [Isoflupredone acetate], the “Normalized Punctate Distribution” value (Raw264.7 cells [1]) was 0.07 and the “Normalized siRNA Uptake” value (Raw264.7 cells [1]) was 0.50.
In the case of Cc1cc(NC(=O)C2=C(O)c3ccccc3S(=O)(=O)N2C)no1 [Isoxicam], the “Normalized Punctate Distribution” value (Raw264.7 cells [1]) is reported as 1.53, the “Normalized siRNA Uptake” value (Raw264.7 cells [1]) is reported as 1.42 and the “increase in siRNACy3 accumulation” value (Raw264.7 cells [1]) is reported as roughly 3 fold.
With CC(COc1ccccc1)NC(C)C(O)c1ccc(O)cc1 (stereo not shown) [Isoxsuprine HCl, isoxsuprine hydrochloride] the “Normalized Punctate Distribution” value (Raw264.7 cells [1]) was 0.33 and the “Normalized siRNA Uptake” value (Raw264.7 cells [1]) was 0.51.
In the case of N[C@@H](Cc1ccc(O)c(O)c1)C(=O)O [Levodopa], the “Normalized Punctate Distribution” value (Raw264.7 cells [1]) is reported as 1.43 and the “Normalized siRNA Uptake” value (Raw264.7 cells [1]) is reported as 1.28.
In the case of c1ccc2c(CC3=NCCN3)cccc2c1 [Naphazoline HCl, naphazoline hydrochloride], the “Normalized Punctate Distribution” value (Raw264.7 cells [1]) is reported as 1.49 and the “Normalized siRNA Uptake” value (Raw264.7 cells [1]) is reported as 1.32.
In the case of C[C@@H]1O[C@@H](O[C@@H]2C=C3CCC4C(CC[C@]5(C)[C@@H](c6ccc(=O)oc6)CC[C@]45O)[C@@]3(C)CC2)[C@H](O)[C@H](O)[C@H]1O (stereo partly shown) [Proscillaridin A], the “relative binding affinity among the 9 cardiac glycosides” value (Na+/K+-ATPase) is given as “strongest binder” and the “LNP uptake with cardiac glycosides” value (HeLa cells) is given as “required the least amount to cause an increased LNP uptake”.
For COc1cc(C(=O)NCc2ccc(OCCN(C)C)cc2)cc(OC)c1OC [Trimethobenzamide HCl, Trimethobenzamide hydrochloride], the “Normalized Punctate Distribution” value (Raw264.7 cells [1]) was 0.31, the “Normalized siRNA Uptake” value (Raw264.7 cells [1]) was 0.70 and the “punctate / cytosolic distribution” value (Raw264.7 cells [1]) was “increased punctate distribution of siRNACy3 with increasing drug concentration”.
